Assay results: patent US9487489B2, “Halogen-substituted pyrazole derivatives as pest-control agents” (BAYER CROPSCIENCE AKTIENGESELLSCHAFT, priority 2013, dated 2016)

Key:
[1] = tested on: engorged adult female cattle ticks (Boophilus microplus); experiment: Boophilus microplus injection test (BOOPMI Inj); assay type: in vivo; settings: application rate 20 μg/animal; injection into abdomen; assessed after 7 days
Method in brief: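 Efficacy is read at 7 days as fertile egg laying (100% = no fertile eggs laid; 0% = all eggs fertile), with eggs of unclear fertility stored until larvae hatch at about 42 days. Five engorged adult females per dose each receive an abdominal injection of 1 μl compound dissolved in DMSO.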

[2] = tested on: adult cat fleas (Ctenocephalides felis); experiment: Ctenocephalides felis oral test (CTECFE); assay type: in vivo; settings: application rate 100 ppm in citrated cattle blood; after 2 days
Protocol: D. Ctenocephalides felis-oral Test (CTECFE)
(§1) Solvent: dimethyl sulphoxide
To produce a suitable preparation of active compound, 10 mg of active compound are mixed with 0.5 ml of dimethyl sulphoxide. Dilution with citrated cattle blood gives the desired concentration.
About 20 unfed adult cat fleas (Ctenocephalides felis) are placed into a chamber which is closed at the top and bottom with gauze. A metal cylinder whose bottom end is closed with a parafilm is placed onto the chamber. The cylinder contains the blood/active ingredient preparation, which can be imbibed by the fleas through the parafilm membrane.
After 2 days, the kill in % is determined 100% means that all of the fleas have been killed; 0% means that none of the fleas have been killed.

[3] = tested on: L1 larvae of the Australian sheep blowfly (Lucilia cuprina); experiment: Lucilia cuprina test (LUCICU); assay type: in vivo; settings: application rate 100 ppm; after 2 days
Protocol: E. Lucilia cuprina Test (LUCICU)
as §1
(§2) To produce a suitable preparation of active compound, 10 mg of active compound are mixed with 0.5 ml of dimethyl sulphoxide, and the concentrate is diluted with water to the desired concentration.
About 20 L1 larvae of the Australian sheep blowfly (Lucilia cuprina) are transferred into a test vessel containing minced horsemeat and the active compound preparation of the desired concentration.
After 2 days, the kill in % is determined 100% means that all of the larvae have been killed; 0% means that none of the larvae have been killed.

[4] = tested on: adult houseflies (Musca domestica); experiment: Musca domestica test (MUSCDO); assay type: in vivo; settings: application rate 100 ppm; after 2 days
Protocol: F. Musca domestica Test (MUSCDO)
as §1, §2
Vessels containing a sponge treated with sugar solution and the active compound preparation of the desired concentration are populated with 10 adult houseflies (Musca domestica).
After 2 days, the kill in % is determined. 100% means that all of the flies have been killed; 0% means that none of the flies have been killed.

[5] = tested on: larvae of the mustard beetle (Phaedon cochleariae); experiment: Phaedon cochleariae spray test (PHAECO); assay type: in vivo; settings: Chinese cabbage leaf discs, after 7 days
Method in brief: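 Kill of mustard beetle larvae is read as % mortality 7 days after spraying. Spray liquid: active compound in acetone plus dimethylformamide, brought up with water holding 1000 ppm alkylaryl polyglycol ether emulsifier and diluted further in emulsifier-water.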

[6] = tested on: caterpillars of the armyworm (Spodoptera frugiperda); experiment: Spodoptera frugiperda spray test (SPODFR); assay type: in vivo; settings: maize leaf discs, after 7 days
Method in brief: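 Percent kill read at day 7 on caterpillar-infested maize leaf discs. Discs were first sprayed with aqueous emulsifier-containing (1000 ppm) preparations made from acetone/dimethylformamide solutions, and dried. Scale: 0% none dead, 100% all dead.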

[7] = tested on: adult dog ticks (Rhipicephalus sanguineus); experiment: Rhipicephalus sanguineus in vitro contact test with adult brown dog ticks (T2); settings: after 48 h
Protocol: T2. Rhipicephalus sanguineus-in vitro Contact Tests with Adult Brown Dog Ticks
For the coating of the test tubes, initially 9 mg of active compound are dissolved in 1 ml of acetone p.a. and then diluted with acetone p.a. to the desired concentration. By turning and rocking on an orbital shaker (2 h of rocking rotation at 30 rpm), 250 μl of the solution are distributed homogeneously on the internal walls and the floor of a 25 ml test tube. At 900 ppm active compound solution and 44.7 cm^2 internal surface, an area dose of 5 μg/cm^2 is achieved for homogeneous distribution.
After evaporation of the solvent, the tubes are populated with 5-10 adult dog ticks (Rhipicephalus sanguineus), sealed with a perforated plastic lid and incubated in a horizontal position in the dark at room temperature and ambient humidity. After 48 h, the efficacy is determined. To this end, the ticks are knocked to the floor of the tube and incubated on a hotplate at 45-50° C. for at most 5 min Ticks which remain motionless on the floor or move in an uncoordinated manner such that they are not able to deliberately avoid the heat by climbing upwards are considered to be dead or moribund.
An efficacy of 100% means that all ticks were dead or moribund. 0% efficacy means that none of the ticks had been damaged.

[8] = tested on: greenhouse red spider mite (Tetranychus urticae); experiment: Tetranychus urticae spray test, OP-resistant (TETRUR); assay type: in vivo; settings: bean leaf discs, after 6 days
Method in brief: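 Percent kill, scored 6 days post-spray (0% = none dead, 100% = all dead), on Phaseolus vulgaris leaf discs infested with every life stage of the OP-resistant spider mite. Compound dissolved in acetone plus DMF, diluted to test concentration with emulsifier-containing water (1000 ppm).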

[9] = tested on: adult cat fleas (Ctenocephalides felis); experiment: Ctenocephalides felis in vitro contact test with adult cat fleas (T1); settings: after 48 h
Method in brief: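 Adult cat fleas (Ctenocephalides felis), 5-10 per tube, were exposed to the inner surface of 25 ml test tubes coated with compound in acetone. Tubes were incubated lying flat under ambient conditions. Efficacy was then read by standing tubes upright and knocking the fleas to the floor. Fleas that stayed motionless or moved uncoordinatedly counted as dead or moribund, where 100% means all fleas dead or moribund and 0% means none harmed.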

[10] = logP determination by HPLC on a reversed-phase column (C18), EEC Directive 79/831 Annex V.A8; assay type: physicochemical; settings: HPLC on reversed-phase column (C18), acetonitrile/water with formic acid, EEC Directive 79/831 Annex V.A8
Method in brief: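 Per EEC 79/831 Annex V.A8, values derive from HPLC retention at 2.0 ml/min and 55° C on a 50*4.6 C18 column. The 10→95% acetonitrile gradient (0.1%/0.09% formic acid) lasted 4.25 min plus a 1.25 min hold; mass detection was by MSD.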

SMILES | efficacy (laying of fertile eggs) [1] [%] | efficacy (kill in %) [2] [%] | efficacy (kill in %) [3] [%] | efficacy (kill in %) [4] [%] | efficacy in % ([5]; application rate 500 g/ha) [%] | efficacy in % ([6]; application rate 500 g/ha) [%] | efficacy (dead or moribund ticks) ([7]; application rate 1 μg/cm^2) [%] | efficacy (dead or moribund ticks) ([7]; application rate 5 μg/cm^2) [%] | efficacy in % ([8]; application rate 500 g/ha) [%] | efficacy (dead or moribund fleas) ([9]; application rate 1 μg/cm^2) [%] | efficacy (dead or moribund fleas) ([9]; application rate 5 μg/cm^2) [%] | logP [10] | efficacy in % ([5]; application rate 100 g/ha) [%] | efficacy in % ([8]; application rate 100 g/ha) [%] | efficacy in % ([6]; application rate 100 g/ha) [%]
Cn1nc(C(F)(F)C(F)(F)F)c(C(F)(F)F)c1-n1cc(-c2ccc(F)c(C(=O)NC3CC3)c2F)cn1 [Ic-174] | 100 | 100 | 100 | 100 | 100 | 100 | 100 | 100 | – | – | – | – | – | – | –
Cn1nc(C(F)(F)C(F)(F)F)c(C(F)(F)F)c1-n1cc(-c2ccc(Cl)c(C(=O)Nc3ccccn3)c2)cn1 [Ic-140] | 100 | 100 | 100 | 90 | 100 | 100 | – | – | 100 | 100 | 100 | – | – | – | –
COc1ccc(-c2cnn(-c3c(C(F)(F)F)c(C(F)(F)C(F)(F)F)nn3C)c2)cc1C(=O)NC1(C#N)CC1 [Ic-67] | 100 | 100 | 100 | 95 | – | – | 80 | – | – | – | – | 3.77 | 100 | 100 | –
Cn1nc(C(F)(F)C(F)(F)F)c(C(F)(F)F)c1-n1cc(-c2cc(C(=O)NC3CC3)cc(F)c2F)cn1 [Ic-61] | 100 | 100 | 100 | 80 | 100 | – | – | 80 | – | – | – | – | – | – | 100
Cn1nc(C(F)(F)C(F)(F)F)c(C(F)(F)F)c1-n1cc(-c2ccc(Cl)c(C(=O)Nc3ccc(Cl)cc3)c2)cn1 [Ic-25] | 100 | 95 | 100 | 90 | – | – | 100 | 100 | – | – | – | 4.93 | 100 | – | 100
Cn1nc(C(F)(F)C(F)(F)F)c(C(F)(F)F)c1-n1cc(-c2cc(F)cc(C(=O)NC3CC3)c2)cn1 [Ic-39] | 100 | 100 | 100 | 100 | 100 | 100 | – | – | – | – | – | – | – | 100 | 100
Cn1nc(C(F)(F)C(F)(F)F)c(C(F)(F)F)c1-n1cc(-c2cc(Cl)cc(C(=O)NC3CC3)c2)cn1 [Ic-44] | 100 | 100 | 100 | 80 | 100 | 100 | – | – | 80 | – | – | – | – | – | –
CC(NC(=O)c1cc(-c2cnn(-c3c(C(F)(F)F)c(C(F)(F)C(F)(F)F)nn3C)c2)ccc1Cl)C(N)=O (stereo not shown) [Ic-154] | 100 | 100 | 100 | 90 | 100 | 100 | – | – | 100 | 100 | 80 | – | – | – | –
Cn1nc(C(F)(F)C(F)(F)F)c(C(F)(F)F)c1-n1cc(-c2cc(C(=O)NC3(C#N)CC3)cc(F)c2F)cn1 [Ic-64] | 100 | 100 | 100 | 80 | 100 | – | – | – | – | – | – | – | – | 100 | 100
CC(CC1CC1)NC(=O)c1cc(-c2cnn(-c3c(C(F)(F)F)c(C(F)(F)C(F)(F)F)nn3C)c2)ccc1Cl (stereo not shown) [Ic-161] | 100 | 100 | 100 | 80 | 100 | 100 | 80 | 100 | 100 | – | – | – | – | – | –
Cn1nc(C(F)(F)C(F)(F)F)c(C(F)(F)F)c1-n1cc(-c2ccc(Cl)c(C(=O)Nc3ccccc3)c2)cn1 [Ic-136] | 100 | 100 | 100 | 90 | 100 | 100 | – | – | 100 | – | – | – | – | – | –
Cn1nc(C(F)(F)C(F)(F)F)c(C(F)(F)F)c1-n1cc(-c2cc(Cl)cc(C(=O)NC3(C#N)CC3)c2)cn1 [Ic-43] | 100 | 100 | 100 | 100 | 100 | 100 | 100 | – | – | – | – | – | – | – | –
Cn1nc(C(F)(F)C(F)(F)F)c(C(F)(F)F)c1-n1cc(-c2cc(C(=O)NC3(C#N)CC3)ncc2F)cn1 [Ic-73] | 100 | 100 | 100 | 90 | 100 | 100 | 80 | 80 | – | – | – | – | – | 100 | 100
Cn1nc(C(F)(F)C(F)(F)F)c(C(F)(F)F)c1-n1cc(-c2cc(C(=O)NC3CC3)cc(C(F)(F)F)c2)cn1 [Ic-59] | 100 | 100 | 100 | 100 | 100 | 100 | 100 | – | – | – | – | – | – | 90 | –
Cn1nc(C(F)(F)C(F)(F)F)c(C(F)(F)F)c1-n1cc(-c2cc(C(=O)NC3CC3)ccc2Cl)cn1 [Ic-46] | 100 | 100 | 100 | 100 | 100 | 100 | 100 | – | – | – | – | – | – | – | –
Cn1nc(C(F)(F)C(F)(F)F)c(C(F)(F)F)c1-n1cc(-c2ccc(Cl)c(C(=O)NC3CC3)c2F)cn1 [Ic-106] | 100 | 100 | 100 | 100 | 100 | 83 | – | 100 | – | – | – | – | – | – | –
